The text below walks through data of paper PMC13242511, “Disrupting Notch signalling by a small molecule inhibiting dihydroorotate dehydrogenase activity” (Scientific Reports, 2026).

Values joined by “and” are separate entries in the source; they are usually repeats but may differ in a detail not shown here. Equal entries are not always repeated. Where two headings read alike, the source gives them in different places.

In one series the target is γ-secretase complex (Homo sapiens, UniProt P49768). Briefly: APP-C99 counter assay (GSI reporter assay). The format is cell-based. Also on record: AUC APP: scale not given here. The conditions noted are these: for AUC APP: area under the 14-point dose-response curve, replicates averaged. Summed up:
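Cells transfected with APP-C99 firefly luciferase reporter plus renilla normalization plasmid, seeded 24 h later onto compound plates and cultured 24 h. Dual luciferase read in triplicate per concentration; IC50 from variable-slope log(inhibitor) fit, with AUC also calculated from dose–response curves.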

The subject of another series is Notch signalling. Briefly: Notch reporter assay (12xCSL firefly luciferase / renilla luciferase, HEK293T Notch1ΔE reporter cell line clone #A1-11). Also on record: AUC Notch: scale not given here. The conditions noted are these: for AUC Notch: area under the 14-point dose-response curve. The format is cell-based. The essentials: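 Compounds at two-fold concentration in 10 µl medium were brought to one-fold by adding 10 µl holding 4000 Notch reporter cells (clone #A1-11) per well of a 384-well plate. After 24 h, Promega dual-GLO firefly and renilla luciferase were read on a SpectraMaxi3. Dose-response curves were fitted with a log(inhibitor) vs. response variable-slope model.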
(A reporter such as luciferase makes a cellular process visible.)

The mark [1] stands for this setting: 9p dose response, AUCs averaged when replicates available.
Setting [2] is: 9p dose response, log10 of averaged IC50.
Where [3] appears, read: 14p dose response, AUCs averaged when replicates available.
Where [4] appears, read: overview in comparison to compound C, Supplemental Fig. 9.

With `C[C@H](NC(=O)Cc1cc(F)cc(F)c1)C(=O)N[C@H](C(=O)OC(C)(C)C)c1ccccc1` [DAPT, reference compound], the “Hill-Slope 9p APP counter assay averaged” value on γ-secretase complex (9p dose response) is listed as -2.8. Further, on γ-secretase complex (setting [1]), the “AUC 9p APP-counter assay” value is 3.64E+02. Also, the IC50 at γ-secretase complex (9p dose response, averaged, read-out: 9p APP counter assay averaged IC50s) was found to be 2500 nM; on γ-secretase complex (9p dose response, read-out: approximated IC50s 9p APP counter assay) it was 2500 nM; on γ-secretase complex (14-point, unit inferred, some fits outside of tested concentration range, read-out: approximated IC50s 14p APP-counter assay) it was 400 nM; on γ-secretase complex (14p APP assay DR, Notch inhibitor controls, no bottom constraint named, read-out: approximated IC50) it was 5200 nM; at γ-secretase complex (14p dose response, single replicates, read-out: approximated IC50s 14p APP counter assay averaged), 5200 nM; on γ-secretase complex (14p dose response, averaged over replicates, read-out: 14p APP counter assay averaged IC50s), 5200 nM. Further, the IC50 is 290 nM and 260 nM in the series on Notch signalling (9p dose response, single replicates, read-out: approximated IC50s 9p Notch reporter assay); 280 nM in the series on Notch signalling (9p dose response, averaged over replicates, read-out: 9p Notch reporter assay averaged IC50s); 440 nM in the series on Notch signalling (14-point, unit inferred, replicates averaged, read-out: approxiated IC50s 14p Notch reporter assay); 510 nM and 370 nM in the series on Notch signalling (14p dose response, single replicates, read-out: approximated IC50s 14p Notch reporter assay). Further, the “9p APP counter assay averaged IC50s (log)” value on γ-secretase complex (setting [2]) was -5.6. Also, the curve fit information entry at γ-secretase complex (14p APP assay DR, Notch inhibitor controls, no bottom constraint named) is given as “IC50 indeterminate”. The “AUC. 14p APP-counter assay” value on γ-secretase complex (setting [3]) is reported as 5.80E+02. In addition, the “AUC APP” value on γ-secretase complex is 580.4. For the same compound, on γ-secretase complex (setting [4]), the APP assay result was “higher potency”. Further, the “reporter signal in % of DMSO” value with Notch signalling (10 µM, inhibitor controls, Supplemental Fig. 2A) came out at 49%. Also, the “AUC 9p Notch reporter assay” value in the series with Notch signalling (setting [1]) is given as 3.01E+02. The “9p Notch reporter assay averaged IC50s (log)” value with Notch signalling (setting [2]) was -6.6. Also, in the series with Notch signalling (14p Notch assay DR, Emax indicated independent from assay constraints, in % (unit assumed)), the “Bottom (Emax)” value is 42.8 and 41.0. Moreover, the “approximated LogIC50 [M]” value in the series with Notch signalling (14p Notch assay DR, log10 value, Notch inhibitor controls, no bottom constraint named) is -6.3 M. The “AUC 14p Notch reporter assay” value in the series with Notch signalling (setting [3]) came to 4.95E+02. Moreover, the “14p Notch reporter assay averaged IC50s (log)” value with Notch signalling (14p dose response, log10 of averaged IC50) is listed as -6.4. For the same compound, the renilla signal entry in the series on Notch signalling (384-well format) is given as “not affected”. Moreover, in the series on Notch signalling (replicates averaged), the “AUC Notch” value is given as 495.0. For the same compound, the Notch assay entry in the series on Notch signalling (setting [4]) is “comparable”.

`NC(=O)c1c(NC(=O)NCc2cccnc2)sc2c1CCC2` [compound D]: the Hill-slope on γ-secretase complex (14p APP assay DR, bottom constrained to Emax of positive control LY-411575, listed as CBK307578) turned out to be 0.0595. Further, the remaining activity at 10 µM at γ-secretase complex (24 h, 10µM, APP-C99 counter assay, read-out: 3p-DR in % of DMSO counter) worked out at 119%. In addition, the remaining activity at 25 µM at γ-secretase complex (24 h, 25µM, APP-C99 counter assay, read-out: 3p-DR in % of DMSO counter) amounted to 134%. Besides, the remaining activity at […] on γ-secretase complex (24 h, 1,25µM, APP-C99 counter assay, read-out: 3p-DR in % of DMSO counter) came out at 78%. At γ-secretase complex, the “AUC APP” value worked out at 449.6. In addition, in the series with Notch signalling (14-point dose-response), the “Hill slope, Notch reporter assay” value was -1.7. In addition, the IC50 with Notch signalling (Homo sapiens, HEK-293T, 14-point dose-response, Fig. 4, read-out: approximated IC50, Notch reporter assay) is 1000 nM; in the series with Notch signalling (Homo sapiens, HEK-293T, 14-point, unit inferred, replicates averaged, read-out: approxiated IC50s 14p Notch reporter assay), 780 nM; with Notch signalling (Homo sapiens, HEK-293T, 14p Notch assay DR, bottom constrained to Emax of positive control DAPT, read-out: approximated IC50), 1300 nM; in the series on Notch signalling (Homo sapiens, HEK-293T, 14p Notch assay DR, bottom constrained to Emax of positive control RO4929097, read-out: approximated IC50), 230 nM; in the series with Notch signalling (Homo sapiens, HEK-293T, 14p Notch assay DR, log10 value, bottom constrained to Emax of positive control DAPT, read-out: approximated LogIC50 (converted)), 1580 nM; in the series with Notch signalling (Homo sapiens, HEK-293T, 14p Notch assay DR, log10 value, bottom constrained to Emax of positive control RO4929097, read-out: approximated LogIC50 (converted)), 251 nM. In addition, the activity at 10 µM with Notch signalling (Homo sapiens, HEK-293T, 10 µM, primary screen, 24 h, unit from Fig. 2 legend, read-out: Primary screen at 10 µM (Notch reporter signal)) was found to be 44.7%; in the series on Notch signalling (Homo sapiens, HEK-293T, 10 µM, three-dose confirmation screen, unit from Fig. 2 legend, read-out: Hit confirmation at 10 µM (Notch reporter signal)), 47%; in the series on Notch signalling (Homo sapiens, HEK-293T, 10µM, 3-point DR confirmation screen, Notch reporter assay, read-out: inhibitor ratio in % of DMSO in 3 point DR) it was 47%; with Notch signalling (Homo sapiens, HEK-293T, 10 µM, sheet conf vs counter 10 µM, same values as 3-point DR confirmation screen, read-out: Confirmation screen), 47%. Further, the activity at 25 µM with Notch signalling (Homo sapiens, HEK-293T, 25µM, 3-point DR confirmation screen, Notch reporter assay, read-out: inhibitor ratio in % of DMSO in 3 point DR) was 55.6%; in the series with Notch signalling (Homo sapiens, HEK-293T, 25 µM, Notch reporter 3-point dose-confirmation assay, sheet "conf vs counter 25 µM", read-out: Confirmation screen) it was 55.6%. The activity in the series on Notch signalling (Homo sapiens, HEK-293T, 1,25µM, 3-point DR confirmation screen, Notch reporter assay, read-out: inhibitor ratio in % of DMSO in 3 point DR) amounted to 91%. For the same compound, in the series on Notch signalling (replicates averaged), the “AUC Notch” value amounted to 273.0. In the series on Notch signalling (extended dose range, Supplemental Fig. 7B), the “concentrations associated with cytotoxicity (high dose-points removed)” value was “higher than 12.5 µM”.
